Key:
[1] = cited from earlier work; for decrease in concentrations: 4 hours after administration; for decrease in concentrations / time to maximum plasma concentration / accumulation in tissues: rats; for decrease in concentrations / accumulation in tissues: oral; for toxic effects: administrations up to 100mg/kg; for time to maximum plasma concentration: oral administration of Portulaca oleracea L extracts
[2] = system: Thoracic Aorta; experiment: Vascular tone of isolated thoracic aorta rings in organ bath after 4-week treatment (KCl, Phe, ACh and SNP protocols); assay type: in vivo, Wistar rats
Description: (§1) 5 experimental groups were formed to observe the effects of aurantiamide acetate. Eight […] male Wistar rats were used in each group. The experimental groups created are as follows: • 1. Control group, • 2. SHAM operated (the abdominal cavity is opened and closed by suturing again without any procedure) group, • 3. Aurantiamide acetate (ASP) administered group, • 4. Hypertension (HT) group, • 5. Hypertension+aurantiamide acetate (HT+ASP) administered group.
(§2) Aurantiamide acetate was applied to the ASP and HT+ASP groups among the experimental groups. A 100 mM stock was prepared by dissolving 10 mg of aurantiamide acetate in 225 µl of dimethyl sulfoxide (DMSO). For 200 g rat, µl of aurantiamide acetate was administered in 100 µl. Weekly 2.5 mg/kg of aurantiamide acetate was administered intraperitoneally for 4 weeks, 0.5 mg/kg daily, 5 days a week. In total, each rat was given 10 mg/kg of aurantiamide acetate. To eliminate the effects of daily intraperitoneal (i.p.) injection; equal volumes (100 µl) of i.p.DMSO were injected into the rats of control group, SHAM-operated group, and hypertension group. Changes in body weight, blood pressure values, erythrocyte deformability, vascular isolation, and vascular tone were investigated in the experimental groups during the experiment.
Vascular isolation was investigated in the experimental groups. The rats in all experimental groups were anesthetized with intraperitoneal ketamine/xylazine (45 mg/kg ketamine and 10 mg/kg xylazine) anesthesia at the end of the 4-week experimental period. After their abdomens were opened, blood was drawn from their abdominal aorta to obtain plasma as well as for use in measuring deformability, and rats were sacrificed by anemia. The thoracic aorta was quickly opened and the thoracic aorta was separated from the other tissues, and removed. As soon as the thoracic aorta tissue is removed, it was taken into a beaker containing Krebs solution (110 mM sodium chloride (NaCl), 5 mM potassium chloride (KCI), 24 mM sodium bicarbonate (NaHCO3), 1 mM mono potassium phosphate (KH2PO4), 1 mM magnesium sulfate heptahydrate (MgSO4.7H2O), 2.5 mM calcium chloride (CaCl2), 10 mM glucose, 0.02 mM ethylenediamine tetraacetic acid (EDTA); pH=7.4). After the tissue was washed with cold Krebs, the dissection stage was started. For the microdissection stage, the thoracic aorta, taken in a petri dish containing cold Krebs, is fixed to the medium, and fat and connective tissue were removed from the artery at the appropriate magnification by using a dissecting microscope. The isolated thoracic aorta is divided into rings of appropriate length. In addition, the rest of the aorta tissue was removed and stored under appropriate conditions for histological and biochemical parameters. Vascular tone was evaluated in the experimental groups. Vascular tone in the experimental groups was analyzed as in the previous work of the project team. After the isolated thoracic aorta is divided into 2 - 2.5 mm long rings; it was gasified with a gas mixture containing 95% O2 - 5% CO2, and it was placed in an organ bath with 10 ml of Krebs solution at 37°C and pH 7.4. After the vessel rings are attached to the isometric transducer by means of a tight rope by hanging them on steel wires, they were washed every 15 minutes under 1 gram relaxation tension and rested for a total of 60 minutes. If the tension changed after each wash, attention was paid to bring it back to 1 gram of tension. After a one-hour relaxation tension (rest period), the vitalization stage, which is the prepulse stage, was applied to the vessels. For this process, after applying Krebs solution containing 20 mM potassium chloride (KCI), phenylephrine (Phe) was added at a concentration of 10^-7 M. This process was repeated 3 times in succession. After the vitalization procedure, the vessels were washed with Krebs solution and an additional 30-minute resting period was started. […]

[3] = Change in body weight during the administration period; assay type: in vivo, Wistar rats; conditions: between the experimental groups, Day 0 and end of 4th week
Description: as §1
as §2, with “Changes in body weight, blood pressure values, erythrocyte deformability, vascular isolation, and vascular tone were investigated in the experimental groups during the experiment.” left out
The initial weights of the rats were measured in the range of 180-200 g. The weights of each rat before the experiment (Day 0) and after the experiment (at the end of the 4th week) were recorded. […]

[4] = system: 2K-1C renovascular hypertension; experiment: Blood pressure by non-invasive tail-cuff method in rats, Goldblatt two kidneys single clip (2K-1C) hypertension model; assay type: in vivo, Wistar rats
Description: as §1
Hypertension was induced in rats with the Goldblatt model with two kidneys and a single clip (2K-1C). In this model, no operation was performed on the right kidney. The left renal artery was narrowed to 0.22 mm in diameter. In the surgical hypertension model created, renin secretion by the kidney with decreased blood flow led to increased angiotensin II (ANG II) formation and therefore an increase in blood pressure. Sodium excretion by the intact contralateral kidney increases as blood pressure increases (pressure natriuresis), therefore, there was no sodium retention. The rats were anesthetized intraperitoneally before the operation. In the creation of the hypertension model, 90 mg/kg ketamine and 10 mg/kg xylazine were administered intraperitoneally for anesthesia. After anesthesia, the abdomens of the rats were shaved and disinfected with betadine. After disinfection, a midline incision was made and the left kidney was exposed. The left renal artery was isolated from the renal vein, and to induce 2K-1C renovascular hypertension, the circumference of the left renal artery was narrowed gently to 0.22 mm in diameter by 5/0 non-absorbable silicone-coated silk sutures The same procedure was applied to SHAM operated group rats, but the left renal artery was not narrowed. Postoperatively, the peritoneum was sutured with 3/0 absorbable polyglycan suture and the skin layer was sutured with 3/0 non-absorbable silk suture. In the hypertension model, it was waited for 1 week to observe the increase in blood pressure in the hypertension and hypertension+aurantiamide acetate groups, and then blood pressure was measured.
The blood pressures of the animals were measured by the non-invasive tail-cuff method. An occlusive cuff and a piezoelectric impact sensor are placed around the tail. Arterial blood pressure measurements were taken weekly at the same time of day (9:00 am to 12:00 am) to avoid influencing the circadian cycle. Basal blood pressure was measured after delivery of each rat, and blood pressures were recorded regularly every week for 4 weeks until sacrifice. The data acquisition system reported blood pressure (mmHg) as systolic, diastolic, and mean. Each measurement was repeated three times and the average of these three data was taken.
as §2
Blood pressure values were examined in the experimental groups during the experimental period.

[5] = system: erythrocytes; experiment: Erythrocyte deformability by ektacytometer (laser diffraction) after 4-week treatment; assay type: in vivo, Wistar rats; conditions: 37°C
Description: as §1
Aurantiamide acetate was applied to the ASP and HT+ASP groups among the experimental groups. A 100 mM stock was prepared by dissolving 10 mg of aurantiamide acetate in 225 µl of dimethyl sulfoxide (DMSO). For 200 g rat, µl of aurantiamide acetate was administered in 100 µl. Weekly 2.5 mg/kg of aurantiamide acetate was administered intraperitoneally for 4 weeks, 0.5 mg/kg daily, 5 days a week. In total, each rat was given 10 mg/kg of aurantiamide acetate. […]
Erythrocyte deformability was measured in the experimental groups. […] Erythrocyte deformability was evaluated by laser diffraction analysis at various fluid shear forces. […] Thus, the deformability of erythrocytes in response to increased shear forces was determined. […] The erythrocyte deformability was calculated by the system as an elongation index. Elongation index (EI) values were measured between nine shear forces (0.30 - 75.02 Pa). […]

[6] = aurantiamide acetate group (no hypertension) vs control and SHAM, p>0.05

Compound: O=C(N[C@@H](Cc1ccccc1)C(=O)N[C@H](CO)Cc1ccccc1)c1ccccc1 [aurantiamide]
- decrease in concentrations [1]: approximately 90%
- toxic effects [1]: No toxic effects
- time to maximum plasma concentration [1]: approximately 12 minutes
- accumulation in tissues [1]: no long-term accumulation

Compound: CC(=O)OC[C@H](Cc1ccccc1)NC(=O)[C@H](Cc1ccccc1)NC(=O)c1ccccc1 [aurantiamide acetate]
- ACh-mediated relaxation response (endothelium-dependent) [2, 6]: no difference
- Phe-mediated contractile response [2, 6]: no differences
- SNP-mediated relaxation response (endothelium-independent) [2, 6]: no statistical difference
- KCl-mediated contractile response ([2]; aurantiamide acetate group (no hypertension) vs control, SHAM and hypertension groups, 20, 40 and 80 mM KCl, p>0.05): no differences
- Phe-mediated contractile response ([2]; hypertension+aurantiamide acetate group compared to hypertension group, p<0.05 and p<0.001): significantly reduced
- SNP-mediated relaxation response (endothelium-independent) ([2]; hypertension+aurantiamide acetate group compared to hypertension group, p>0.05): no difference
- KCl-mediated contractile response ([2]; hypertension+aurantiamide acetate group compared to the other groups, increasing KCl concentrations, p<0.001): significantly lower
- ACh-mediated relaxation response (endothelium-dependent) ([2]; hypertension+aurantiamide acetate group vs hypertension group, p<0.05 and p<0.01): improvement
- body weights before and after [3]: no significant difference
- mean arterial blood pressure ([4]; ASP group (no hypertension), second week, compared with control and SHAM operated groups, p<0.05, 0.5 mg/kg daily i.p., 5 days a week): significantly lower
- mean arterial blood pressure ([4]; ASP group (no hypertension), third week, compared with control group, p<0.05, 0.5 mg/kg daily i.p., 5 days a week): significantly lower
- mean arterial blood pressure ([4]; HT+ASP group, last week (week 4), compared to HT group, p<0.001): significant decrease
- mean arterial blood pressure ([4]; HT+ASP group, second week, compared to HT group, p<0.001, 0.5 mg/kg daily i.p., 5 days a week): significant decrease
- mean arterial blood pressure ([4]; HT+ASP group, second week, compared with control, SHAM and ASP groups, p<0.001): significantly higher
- mean arterial blood pressure ([4]; HT+ASP group, third week, compared to HT group, p<0.001): significant decrease
- mean arterial blood pressure ([4]; HT+ASP group, third week, compared with ASP group only, p<0.001): significantly higher
- mean arterial blood pressure ([4]; HT+ASP group, week 4, no difference from control, SHAM and ASP groups (p>0.05)): reduced to basal levels
- mean arterial blood pressure ([4]; within ASP group according to the weeks, p>0.05): did not show a significant difference
- decrease in concentrations [1]: approximately 90%
- toxic effects [1]: No toxic effects
- time to maximum plasma concentration [1]: approximately 12 minutes
- accumulation in tissues [1]: no long-term accumulation
- erythrocyte deformability, Elmax values [5, 6]: no difference
- erythrocyte deformability ([5]; hypertension + aurantiamide acetate group compared to hypertension group, p<0.01): significant increase
